Results as given in the NIST ThermoML archive (doi:10.1016/j.fluid.2018.10.006).
Several values for one entry are separate records, joined by “and”; a condition that tells them apart may be missing. Identical values can stand only once.

Conditions: Fluid (supercritical or subcritical phases), Coaxial cylinder method

CCCCCC [hexane]
Conditions | thermal conductivity
511.79 K, 4180 kPa | 0.07039 W/m/K
511.79 K, 4190 kPa | 0.07026 W/m/K
511.79 K, 4200 kPa | 0.07026 W/m/K
511.79 K, 4400 kPa | 0.07099 W/m/K
511.79 K, 4600 kPa | 0.07159 W/m/K
511.79 K, 4800 kPa | 0.07179 W/m/K
511.79 K, 5400 kPa | 0.07303 W/m/K
511.79 K, 6000 kPa | 0.074 W/m/K
511.79 K, 7000 kPa | 0.07567 W/m/K
511.79 K, 8000 kPa | 0.07705 W/m/K
511.79 K, 9000 kPa | 0.07812 W/m/K
511.79 K, 10000 kPa | 0.07922 W/m/K
513.09 K, 2634 kPa | 0.0455 W/m/K
513.09 K, 2645 kPa | 0.04562 W/m/K
513.09 K, 2653 kPa | 0.04575 W/m/K
513.09 K, 2654 kPa | 0.04575 W/m/K
513.09 K, 2655 kPa | 0.04575 W/m/K
513.09 K, 2661 kPa | 0.04587 W/m/K
513.09 K, 2722 kPa | 0.04549 W/m/K
513.09 K, 2740 kPa | 0.04678 W/m/K
513.09 K, 2760 kPa | 0.04705 W/m/K
513.09 K, 2763 kPa | 0.04704 W/m/K
513.09 K, 2839 kPa | 0.04831 W/m/K
513.09 K, 2849 kPa | 0.04859 W/m/K
513.09 K, 2879 kPa | 0.04916 W/m/K
513.09 K, 2894 kPa | 0.04931 W/m/K
513.09 K, 2909 kPa | 0.0496 W/m/K
513.09 K, 2931 kPa | 0.05008 W/m/K
513.09 K, 2953 kPa | 0.05053 W/m/K
513.09 K, 2983 kPa | 0.05146 W/m/K
513.09 K, 3010 kPa | 0.05237 W/m/K
513.09 K, 3034 kPa | 0.05319 W/m/K
513.09 K, 3054 kPa | 0.05386 W/m/K
513.09 K, 3098 kPa | 0.05597 W/m/K
513.09 K, 3114 kPa | 0.05684 W/m/K
513.09 K, 3152 kPa | 0.05939 W/m/K
513.09 K, 3163 kPa | 0.06043 W/m/K
513.09 K, 3169 kPa | 0.06085 W/m/K
513.09 K, 3176 kPa | 0.06151 W/m/K
513.09 K, 3180 kPa | 0.06217 W/m/K
513.09 K, 3184 kPa | 0.06262 W/m/K
513.09 K, 3186 kPa | 0.06285 W/m/K
513.09 K, 3193 kPa | 0.06308 W/m/K
513.09 K, 3195 kPa | 0.06308 W/m/K
513.09 K, 3200 kPa | 0.06331 W/m/K
513.09 K, 3205 kPa | 0.06425 W/m/K
513.09 K, 3207 kPa | 0.06497 W/m/K
513.09 K, 3212 kPa | 0.06596 W/m/K
513.09 K, 3216 kPa | 0.06647 W/m/K
513.09 K, 3231 kPa | 0.06898 W/m/K
513.09 K, 3232 kPa | 0.06917 W/m/K
513.09 K, 3234 kPa | 0.06942 W/m/K
513.09 K, 3235 kPa | 0.06951 W/m/K
513.09 K, 3236 kPa | 0.06967 W/m/K
513.09 K, 3237 kPa | 0.06987 W/m/K
513.09 K, 3238 kPa | 0.07001 W/m/K
513.09 K, 3240 kPa | 0.07024 W/m/K
513.09 K, 3242 kPa | 0.07052 W/m/K
513.09 K, 3243 kPa | 0.07067 W/m/K
513.09 K, 3244 kPa | 0.07081 W/m/K
513.09 K, 3246 kPa | 0.0711 W/m/K
513.09 K, 3247 kPa | 0.07125 W/m/K
513.09 K, 3248 kPa | 0.07133 W/m/K
513.09 K, 3249 kPa | 0.07154 W/m/K
513.09 K, 3251 kPa | 0.07169 W/m/K
513.09 K, 3252 kPa | 0.07184 W/m/K
513.09 K, 3253 kPa | 0.07198 W/m/K
513.09 K, 3254 kPa | 0.07213 W/m/K
513.09 K, 3255 kPa | 0.07228 W/m/K
513.09 K, 3256 kPa | 0.07243 W/m/K
513.09 K, 3257 kPa | 0.07258 W/m/K
513.09 K, 3258 kPa | 0.07265 W/m/K
513.09 K, 3260 kPa | 0.07284 W/m/K
513.09 K, 3261 kPa | 0.07295 W/m/K and 0.073 W/m/K
513.09 K, 3262 kPa | 0.07311 W/m/K
513.09 K, 3263 kPa | 0.07319 W/m/K
513.09 K, 3265 kPa | 0.07338 W/m/K
513.09 K, 3266 kPa | 0.07346 W/m/K
513.09 K, 3267 kPa | 0.07354 W/m/K
513.09 K, 3274 kPa | 0.07412 W/m/K
513.09 K, 3277 kPa | 0.07428 W/m/K
513.09 K, 3279 kPa | 0.07428 W/m/K
